# From patent US20120244567A1, “HUMAN EMBRYONIC STEM CELLS FOR HIGH THROUGHOUT DRUG SCREENING” (BUCK INSTITUTE FOR RESEARCH ON AGING, priority 2009, published 2012)
# Where a name gives a salt, the structure may show the parent alone.
# Tested on: NSCs
# Method: RNAs isolated from NSCs and neurons with and without drug treatments were hybridized to Illumina HumanRef-8 BeadChip (Illumina, Inc., San Diego, Calif., performed by Microarray core facility at the Burnham Institute for Medical Research). The Illumina array data were normalized by the quantile method, and then transformed log 2 ratio values for a zero mean for expression values of each gene across all samples. The statistical and bioinformatics analyses were conducted by using R and the bioconductor package (www.bioconductor.org). The gene set enrichment analysis was conducted using the GSEA software (www.broad.mit.edu/gsea).
# The comparative results are then measured by a non-parametric, running sum statistic termed the enrichment score. The enrichment score significance is assessed by 1,000 permutation tests to compute the enrichment p-value.
smiles,measurement,setting,value
CCCCc1oc2ccccc2c1C(=O)c1cc(I)c(OCCN(CC)CC)c(I)c1 [Amiodarone Hydrochloride],Nes: Acetyltransferase Activity,Enriched In Untreated Nscs,−1.239
same,Nes: Amine Transmembrane Transporter Activity,Enriched In Untreated Nscs,−0.9002
same,Nes: Amino Acid Transmembrane Transporter Activity,Enriched In Untreated Nscs,−0.9455
same,Nes: Atp Dependent Helicase Activity,Enriched In Untreated Nscs,−1.499
same,Nes: Atp Dependent Rna Helicase Activity,Enriched In Untreated Nscs,−1.626
same,Nes: Atpase Activity,Enriched In Untreated Nscs,−0.8253
same,Nes: Atpase Activity Coupled,Enriched In Untreated Nscs,−1.068
same,Nes: Atpase Activity Coupled To Movement Of Substances,Enriched In Untreated Nscs,−0.3743
same,Nes: Atpase Activity Coupled To Transmembrane Movement Of Ions,Enriched In Untreated Nscs,−0.543
same,Nes: Calcium Ion Binding,Enriched In Untreated Nscs,−1.593
same,Nes: Carbohydrate Binding,Enriched In Untreated Nscs,−0.9729
same,Nes: Carboxylic Acid Transmembrane Transporter Activity,Enriched In Untreated Nscs,−0.8373
same,Nes: Cation Binding,Enriched In Untreated Nscs,−1.033
same,Nes: Chromatin Binding,Enriched In Untreated Nscs,−1.015
same,Nes: Cofactor Binding,Enriched In Untreated Nscs,−0.9326
same,Nes: Cytokine Activity,Enriched In Untreated Nscs,−1.381
same,Nes: Cytokine Binding,Enriched In Untreated Nscs,−1.174
same,Nes: Damaged Dna Binding,Enriched In Untreated Nscs,−1.1681
same,Nes: Dna Dependent Atpase Activity,Enriched In Untreated Nscs,−1.2
same,Nes: Dna Helicase Activity,Enriched In Untreated Nscs,−0.5542
same,Nes: Double Stranded Dna Binding,Enriched In Untreated Nscs,−0.4584
same,Nes: Electron Carrier Activity,Enriched In Untreated Nscs,−0.6307
same,Nes: Enzyme Activator Activity,Enriched In Untreated Nscs,−1.024
same,Nes: Exopeptidase Activity,Enriched In Untreated Nscs,−0.915
same,Nes: Glycosaminoglycan Binding,Enriched In Untreated Nscs,−0.9127
same,Nes: Growth Factor Activity,Enriched In Untreated Nscs,−1.254
same,Nes: Gtp Binding,Enriched In Untreated Nscs,−0.9695
same,Nes: Gtpase Activity,Enriched In Untreated Nscs,−0.811
same,Nes: Guanyl Nucleotide Binding,Enriched In Untreated Nscs,−1.265
same,Nes: Helicase Activity,Enriched In Untreated Nscs,−1.374
same,Nes: Heparin Binding,Enriched In Untreated Nscs,−1.015
same,Nes: Hormone Activity,Enriched In Untreated Nscs,−1.196
same,Nes: Hydrogen Ion Transmembrane Transporter Activity,Enriched In Untreated Nscs,−1.077
same,Nes: Hydrolase Activity Acting On Acid Anhydrides,Enriched In Untreated Nscs,−0.9907
same,Nes: Hydrolase Activity Acting On Acid Anhydrides Catalyzing Transmembrane Movement Of Substances,Enriched In Untreated Nscs,−0.4097
same,Nes: Hydrolase Activity Acting On Carbon Nitrogen But Not Peptide Bonds,Enriched In Untreated Nscs,−0.7823
same,Nes: Ion Binding,Enriched In Untreated Nscs,−1.044
same,Nes: Kinase Activity,Enriched In Untreated Nscs,−0.9611
same,Nes: Kinase Inhibitor Activity,Enriched In Untreated Nscs,−0.8002
same,Nes: Kinase Regulator Activity,Enriched In Untreated Nscs,−0.9286
same,Nes: Lipase Activity,Enriched In Untreated Nscs,−1.055
same,Nes: Lipid Binding,Enriched In Untreated Nscs,−1.147
same,Nes: Magnesium Ion Binding,Enriched In Untreated Nscs,−1.1144
same,Nes: Metallopeptidase Activity,Enriched In Untreated Nscs,−1.06
same,Nes: Microtubule Binding,Enriched In Untreated Nscs,−0.7143
same,Nes: N Acetyltransferase Activity,Enriched In Untreated Nscs,−1.282
same,Nes: N Acyltransferase Activity,Enriched In Untreated Nscs,−1.201
same,Nes: Nucleobase Nucleoside Nucleotide Kinase Activity,Enriched In Untreated Nscs,−1.417
same,Nes: Nucleoside Triphosphatase Activity,Enriched In Untreated Nscs,−0.8995
same,Nes: Nucleotidyltransferase Activity,Enriched In Untreated Nscs,−0.6782
same,Nes: Organic Acid Transmembrane Transporter Activity,Enriched In Untreated Nscs,−0.8193
same,Nes: Oxidoreductase Activity Acting On Nadh Or Nadph,Enriched In Untreated Nscs,−1.092
same,Nes: Oxidoreductase Activity Acting On The Ch Ch Group Of Donors,Enriched In Untreated Nscs,−1.2992
same,Nes: Pattern Binding,Enriched In Untreated Nscs,−0.8999
same,Nes: Peptide Binding,Enriched In Untreated Nscs,−0.9386
same,Nes: Phospholipid Binding,Enriched In Untreated Nscs,−1.255
same,Nes: Phosphotransferase Activity Alcohol Group As Acceptor,Enriched In Untreated Nscs,−0.929
same,Nes: Phosphotransferase Activity Phosphate Group As Acceptor,Enriched In Untreated Nscs,−1.665
same,Nes: Polysaccharide Binding,Enriched In Untreated Nscs,−0.9675
same,Nes: Primary Active Transmembrane Transporter Activity,Enriched In Untreated Nscs,−0.3858
same,Nes: Protein Dimerization Activity,Enriched In Untreated Nscs,−1.017
same,Nes: Protein Heterodimerization Activity,Enriched In Untreated Nscs,−1.3399
same,Nes: Protein Homodimerization Activity,Enriched In Untreated Nscs,−0.801
same,Nes: Protein Kinase Inhibitor Activity,Enriched In Untreated Nscs,−0.7805
same,Nes: Protein Kinase Regulator Activity,Enriched In Untreated Nscs,−0.8809
same,Nes: Protein N Terminus Binding,Enriched In Untreated Nscs,−0.5542
same,Nes: Pyrophosphatase Activity,Enriched In Untreated Nscs,−1.053
same,Nes: Ras Gtpase Binding,Enriched In Untreated Nscs,−0.9567
same,Nes: Receptor Activity,Enriched In Untreated Nscs,−1.044
same,Nes: Receptor Binding,Enriched In Untreated Nscs,−1.0604
same,Nes: Receptor Signaling Protein Serine Threonine Kinase Activity,Enriched In Untreated Nscs,−0.7954
same,Nes: Rhodopsin Like Receptor Activity,Enriched In Untreated Nscs,−1.049
same,Nes: Rna Binding,Enriched In Untreated Nscs,−0.6659
same,Nes: Rna Dependent Atpase Activity,Enriched In Untreated Nscs,−1.8058
same,Nes: Rna Helicase Activity,Enriched In Untreated Nscs,−1.68
same,Nes: Signal Sequence Binding,Enriched In Untreated Nscs,−0.8286
same,Nes: Structural Constituent Of Ribosome,Enriched In Untreated Nscs,−0.6343
same,Nes: Transferase Activity Transferring Acyl Groups,Enriched In Untreated Nscs,−0.9146
same,Nes: Transferase Activity Transferring Hexosyl Groups,Enriched In Untreated Nscs,−0.8814
same,Nes: Transferase Activity Transferring Phosphorus Containing Groups,Enriched In Untreated Nscs,−1.002
same,Nes: Transmembrane Receptor Activity,Enriched In Untreated Nscs,−1.132
same,Nes: Tubulin Binding,Enriched In Untreated Nscs,−1.169
same,Nes: Udp Glycosyltransferase Activity,Enriched In Untreated Nscs,−0.9459
same,Nes: Acid Amino Acid Ligase Activity,enriched in treated NSCs,0.7777
same,Nes: Actin Binding,enriched in treated NSCs,0.7455
same,Nes: Actin Filament Binding,enriched in treated NSCs,1.029
same,Nes: Active Transmembrane Transporter Activity,enriched in treated NSCs,0.8495
same,Nes: Adenyl Nucleotide Binding,enriched in treated NSCs,0.9485
same,Nes: Adenyl Ribonucleotide Binding,enriched in treated NSCs,0.9696
same,Nes: Anion Transmembrane Transporter Activity,enriched in treated NSCs,1.216
same,Nes: Atp Binding,enriched in treated NSCs,0.8813
same,Nes: Calmodulin Binding,enriched in treated NSCs,0.7204
same,Nes: Carbon Oxygen Lyase Activity,enriched in treated NSCs,0.4048
same,Nes: Cation Channel Activity,enriched in treated NSCs,0.9023
same,Nes: Cation Transmembrane Transporter Activity,enriched in treated NSCs,1.013
same,Nes: Cysteine Type Endopeptidase Activity,enriched in treated NSCs,1.621
same,Nes: Cysteine Type Peptidase Activity,enriched in treated NSCs,1.575
same,Nes: Deoxyribonuclease Activity,enriched in treated NSCs,1.357
same,Nes: Endonuclease Activity,enriched in treated NSCs,0.5289
